{"source": "patent US5278143A", "about": "“Prophylactic and therapeutic methods for treating interleukin-mediated edemas” (Trustees of Boston University, priority 1991, dated 1994)", "key": {"IL-2 induced edema [1]": {"test_system": "IL-2 induced edema", "test": "IL-2 induced vascular leak syndrome, organ wet to dry (W/D) weight ratios", "format": "in vivo, rats", "settings": "for Lung wet to dry weight ratio, effect of agent on IL-2 edema: agent 1 uM co-treatment with 10^6 U/ml IL-2, p<0.05, FIG. 5; for Heart wet to dry weight ratio, effect of agent on IL-2 edema: agent 1 uM co-treatment with 10^6 U/mml IL-2, p<0.01, FIG. 4; for Kidney wet to dry ratio, effect of agent on IL-2 edema: agent 1 uM plus 10^6 U/ml IL-2, FIG. 2; for Liver wet to dry ratio, effect of agent with IL-2: agent 1 uM plus IL-2 co-treatment, FIG. 3; for Spleen wet to dry ratio, effect of agent with IL-2: agent plus 10^6 U/ml IL-2, FIG. 1", "method": "(§1) 1. Assay Models: Vascular leak syndrome is induced rapidly in adult, male rats (500 g) by a continuous infusion for 1 h of 10^6 units of IL-2 (n=36). Five hours later the animals are killed and edema is quantitated by measuring wet to dry (W/D) ratios for the lungs, kidneys, liver, heart, and spleen.\n(§2) 2. Controls: Animals are pretreated with 0.5 ml saline for 30 min. prior to the IL-2 infusion (n=28).\n(§3) 3. Experimental Animals: Each animal is pretreated with either Phallin A (antamanide) or Phallin B (phalloidin), 20 ug/0.5 ml saline as a single bolus 30 min. prior to the infusion of IL-2 (n=24). Each animal then receives at 30 min. intervals a booster injection of 20 ug of Phallin A or Phallin B for the duration (6 h) of the experiments."}, "IL-2 induced edema [2]": {"test_system": "IL-2 induced edema", "test": "IL-2 induced vascular leak syndrome, protein concentration of bronchoalveolar lavage fluid", "format": "in vivo, rats", "settings": "agent 1 uM and 10^6 U/ml Interleukin-2, compared with 10^6 U/ml Interleukin-2 alone, FIG. 6", "method": "as §1, §2, §3\n4. Protein Analysis: Samples obtained by bronchoalveolar lavage are quantitated for protein concentration as another means of determining the relative loss of barrier integrity in the experimental animals compared to controls."}, "phalloidin poisoning": {"test_system": "phalloidin poisoning", "settings": "cited from earlier work"}, "IL-2 induced edema [3]": {"test_system": "IL-2 induced edema", "test": "IL-2 induced vascular leak syndrome, organ wet to dry (W/D) weight ratios", "format": "in vivo, rats", "settings": "for Spleen wet to dry ratio (splenic edema) / Kidney wet to dry ratio (renal edema) / Liver wet to dry ratio (hepatic edema) / Heart wet to dry weight ratio (cardiac edema) / Lung wet to dry weight ratio (pulmonary edema): agent alone, 1 uM; for Spleen wet to dry ratio (splenic edema): FIG. 1; for Kidney wet to dry ratio (renal edema): FIG. 2; for Liver wet to dry ratio (hepatic edema): FIG. 3; for Heart wet to dry weight ratio (cardiac edema): FIG. 4; for Lung wet to dry weight ratio (pulmonary edema): FIG. 5"}, "albino mice": {"test_system": "albino mice", "settings": "intramuscularly; cited from earlier work"}, "mice or rats": {"test_system": "mice or rats", "settings": "high dose levels, intramuscularly; cited from earlier work"}}, "note": "Residues, ends and D or L forms follow the SMILES beside them.", "data": [{"molecule": "CC(C)[C@@H]1NC(=O)[C@H](Cc2ccccc2)NC(=O)[C@H](Cc2ccccc2)NC(=O)[C@@H]2CCCN2C(=O)[C@@H]2CCCN2C(=O)[C@H](Cc2ccccc2)NC(=O)[C@H](Cc2ccccc2)NC(=O)[C@H](C)NC(=O)[C@@H]2CCCN2C(=O)[C@@H]2CCCN2C1=O", "note": "[antamanide] (cyclo(AFFPPFFVPP))", "values": [{"measurement": "Lung wet to dry weight ratio, effect of agent on IL-2 edema", "setting": "IL-2 induced edema [1]", "result": "significantly reduced"}, {"measurement": "Lung wet to dry weight ratio, effect of agent on IL-2 edema", "setting": "IL-2 induced edema [1]; listed as Phallin A", "result": "prevented IL-2 induced edema"}, {"measurement": "Heart wet to dry weight ratio, effect of agent on IL-2 edema", "setting": "IL-2 induced edema [1]", "result": "significantly reduced"}, {"measurement": "Heart wet to dry weight ratio, effect of agent on IL-2 edema", "setting": "IL-2 induced edema [1]; listed as Phallin A", "result": "prevented IL-2 induced edema"}, {"measurement": "Kidney wet to dry ratio, effect of agent on IL-2 edema", "setting": "IL-2 induced edema [1]", "result": "signnificantly improved (p<0.05)"}, {"measurement": "Kidney wet to dry ratio, effect of agent on IL-2 edema", "setting": "IL-2 induced edema [1]; listed as Phallin A", "result": "prevented IL-2 induced edema"}, {"measurement": "Liver wet to dry ratio, effect of agent with IL-2", "setting": "IL-2 induced edema [1]", "result": "No significant change in wet/dry weight ratio"}, {"measurement": "Liver wet to dry ratio, effect of agent with IL-2", "setting": "IL-2 induced edema [1]; listed as Phallin A", "result": "appear unaffected"}, {"measurement": "Spleen wet to dry ratio, effect of agent with IL-2", "setting": "IL-2 induced edema [1]", "result": "remained unmodified"}, {"measurement": "Protein concentration in bronchoalveolar lavage fluid", "setting": "IL-2 induced edema [2]", "result": "drastically reduced the accumulation and concentration of protein"}, {"measurement": "toxicity of the substance itself", "setting": "phalloidin poisoning; in vivo", "result": "completely non-toxic of itself"}, {"measurement": "effect on toxic effects of fatal doses of phalloidin", "setting": "phalloidin poisoning; therapeutic doses", "result": "capable of actually annulling the toxic effects of fatal doses of phalloidin"}, {"measurement": "Spleen wet to dry ratio (splenic edema)", "setting": "IL-2 induced edema [3]", "result": "did not produce any significant splenic edema"}, {"measurement": "Kidney wet to dry ratio (renal edema)", "setting": "IL-2 induced edema [3]", "result": "did not produce any significant renal edema"}, {"measurement": "Liver wet to dry ratio (hepatic edema)", "setting": "IL-2 induced edema [3]", "result": "did not produce any significant hepatic edema"}, {"measurement": "Heart wet to dry weight ratio (cardiac edema)", "setting": "IL-2 induced edema [3]", "result": "did not produce any significant cardiac edema"}, {"measurement": "Lung wet to dry weight ratio (pulmonary edema)", "setting": "IL-2 induced edema [3]", "result": "did not produce any significant pulmonary edema"}, {"measurement": "Spleen wet to dry ratio, effect of agent with IL-2", "setting": "IL-2 induced edema [3]; agent plus 10^6 U/ml IL-2, FIG. 1, listed as Phallin A", "result": "appear unaffected"}]}, {"molecule": "Phalloidin", "values": [{"measurement": "Lung wet to dry weight ratio, effect of agent on IL-2 edema", "setting": "IL-2 induced edema [1]", "result": "significantly reduced"}, {"measurement": "Lung wet to dry weight ratio, effect of agent on IL-2 edema", "setting": "IL-2 induced edema [1]; listed as Phallin B", "result": "decreases IL-2 induced edema"}, {"measurement": "Heart wet to dry weight ratio, effect of agent on IL-2 edema", "setting": "IL-2 induced edema [1]", "result": "significantly reduced"}, {"measurement": "Heart wet to dry weight ratio, effect of agent on IL-2 edema", "setting": "IL-2 induced edema [1]; listed as Phallin B", "result": "decreases IL-2 induced edema"}, {"measurement": "Kidney wet to dry ratio, effect of agent on IL-2 edema", "setting": "IL-2 induced edema [1]", "result": "significantly (p<0.05) worsened"}, {"measurement": "Kidney wet to dry ratio, effect of agent on IL-2 edema", "setting": "IL-2 induced edema [1]; listed as Phallin B", "result": "apparently produces edema"}, {"measurement": "Liver wet to dry ratio, effect of agent with IL-2", "setting": "IL-2 induced edema [1]", "result": "produced significant (p<0.05) edema"}, {"measurement": "Liver wet to dry ratio, effect of agent with IL-2", "setting": "IL-2 induced edema [1]; listed as Phallin B", "result": "apparently produces edema"}, {"measurement": "Spleen wet to dry ratio, effect of agent with IL-2", "setting": "IL-2 induced edema [1]", "result": "remained unmodified"}, {"measurement": "Protein concentration in bronchoalveolar lavage fluid", "setting": "IL-2 induced edema [2]", "result": "drastically reduced the accumulation and concentration of protein"}, {"measurement": "LD50 dose", "setting": "albino mice", "result": "3.3 micrograms per gram of body weight"}, {"measurement": "time to death", "setting": "mice or rats", "result": "death of mice or rats within one or two hours"}, {"measurement": "Spleen wet to dry ratio (splenic edema)", "setting": "IL-2 induced edema [3]", "result": "did not produce any significant splenic edema"}, {"measurement": "Kidney wet to dry ratio (renal edema)", "setting": "IL-2 induced edema [3]", "result": "did not produce any significant renal edema"}, {"measurement": "Liver wet to dry ratio (hepatic edema)", "setting": "IL-2 induced edema [3]", "result": "did not produce any significant hepatic edema"}, {"measurement": "Heart wet to dry weight ratio (cardiac edema)", "setting": "IL-2 induced edema [3]", "result": "did not produce any significant cardiac edema"}, {"measurement": "Lung wet to dry weight ratio (pulmonary edema)", "setting": "IL-2 induced edema [3]", "result": "did not produce any significant pulmonary edema"}]}]}
